In ChEMBL document CHEMBL1201862, “PubChem BioAssay data set” (2004):
Activity calls are given as the source filed them.

Experiments:
[1] = NIH-3T3 fibroblast cytotoxicity, dose response, cytotoxicity control, cell-based, fluorescence, Alamar Blue, secondary assay (AID 2327); assay type: functional;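 also: NIH-3T3 mouse fibroblasts cultured with fluconazole at 8 µg/mL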
[2] = C. albicans growth with fluconazole, confirmation, fluorescence, retest (AID 2467); assay type: functional, cell-based
[3] = target: Serine/threonine-protein phosphatase (Candida dubliniensis (strain CD36 / CBS 7987 / NCPF 3949 / NRRLY-17841) (Yeast), UniProt B9W6M3); test: calcineurin pathway inhibitors in yeast reporter, dose response, S. cerevisiae, CDRE-lacZ, luminescence, secondary (AID 2388); assay type: functional, cell-based;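 also: yeast reporter cells carrying a calcineurin-responsive lacZ construct stimulated with calcium chloride; luminescent beta-galactosidase reporter signal in whole cells rather than isolated phosphatase activity; potency for inhibition where a drop in reporter signal means calcineurin blockade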
Exodeoxyribonuclease V = Exodeoxyribonuclease V (Escherichia coli (strain K12), UniProt P04993+P07648+P08394); test: E. coli RecBCD inhibitors, dose response, counter-screen for AddAB inhibitor project, absorbance, V66 E. coli, mutant T4 phage (AID 492957); assay type: functional, cell-based, Escherichia coli str. K-12 substr. MG1655
[4] = target: T1, C-C chemokine receptor type 6 (Homo sapiens, UniProt P51684); test: CCR6 receptor antagonists, dose response, cell-based, luminescent beta-arrestin readout (AID 504728); assay type: functional
T1 sequence (P51684 whole entry): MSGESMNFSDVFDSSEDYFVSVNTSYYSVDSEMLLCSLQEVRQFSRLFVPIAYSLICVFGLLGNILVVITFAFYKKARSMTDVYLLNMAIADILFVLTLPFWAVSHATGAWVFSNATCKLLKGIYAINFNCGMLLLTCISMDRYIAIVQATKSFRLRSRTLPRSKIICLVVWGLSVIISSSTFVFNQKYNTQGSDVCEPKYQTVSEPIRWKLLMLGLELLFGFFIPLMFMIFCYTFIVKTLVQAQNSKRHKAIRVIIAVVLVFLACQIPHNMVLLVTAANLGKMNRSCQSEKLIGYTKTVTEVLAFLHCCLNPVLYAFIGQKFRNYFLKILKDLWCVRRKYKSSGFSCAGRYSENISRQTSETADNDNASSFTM

Beta-galactosidase = Beta-galactosidase (Escherichia coli, UniProt Q8VNN2); test: beta-galactosidase enzyme inhibitors and activators, dose response, artefact control for CCR6 antagonist project, biochemical, E. coli enzyme, set 3 (AID 504712); assay type: functional
[5] = Counterscreen for AddAB inhibitors: absorbance-based bacterial cell-based high throughput dose response assay for inhibitors of bacterial viability. [Related pubchem assays (depositor defined):AID435030, AID449728, AID449731, AID488942, AID488955, AID488956]; assay type: functional
[6] = target: T2, Replicative DNA helicase DnaB (Mycobacterium tuberculosis, UniProt P9WMR3); test: DnaB intein splicing inhibitors, dose response, biochemical, cell-free fluorescence (AID 449749); assay type: functional
T2 sequence (P9WMR3 whole entry): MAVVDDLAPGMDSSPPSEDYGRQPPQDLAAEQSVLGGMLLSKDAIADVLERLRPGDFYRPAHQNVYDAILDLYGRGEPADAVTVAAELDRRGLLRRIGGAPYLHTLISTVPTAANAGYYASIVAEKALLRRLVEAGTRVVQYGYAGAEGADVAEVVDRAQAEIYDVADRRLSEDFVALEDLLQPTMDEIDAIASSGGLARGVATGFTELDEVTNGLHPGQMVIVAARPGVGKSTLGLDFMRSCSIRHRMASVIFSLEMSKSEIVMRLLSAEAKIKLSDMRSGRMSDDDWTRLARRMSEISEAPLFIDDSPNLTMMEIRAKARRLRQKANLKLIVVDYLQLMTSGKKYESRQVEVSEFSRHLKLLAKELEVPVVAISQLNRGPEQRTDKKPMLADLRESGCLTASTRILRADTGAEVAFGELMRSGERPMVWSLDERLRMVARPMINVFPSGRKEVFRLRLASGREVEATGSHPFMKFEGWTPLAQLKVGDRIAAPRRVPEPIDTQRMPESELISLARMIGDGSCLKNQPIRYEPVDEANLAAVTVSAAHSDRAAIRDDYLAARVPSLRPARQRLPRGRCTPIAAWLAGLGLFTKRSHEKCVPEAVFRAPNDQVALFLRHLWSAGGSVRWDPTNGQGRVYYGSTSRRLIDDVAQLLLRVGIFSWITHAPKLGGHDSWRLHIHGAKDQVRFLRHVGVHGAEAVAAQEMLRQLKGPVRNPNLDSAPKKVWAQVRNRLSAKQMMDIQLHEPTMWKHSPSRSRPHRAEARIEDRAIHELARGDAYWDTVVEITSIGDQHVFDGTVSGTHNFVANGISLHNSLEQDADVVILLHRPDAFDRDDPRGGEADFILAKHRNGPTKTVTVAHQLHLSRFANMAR

Protein RecA = target: T3, Protein RecA (Mycobacterium tuberculosis, UniProt P9WHJ3); test: Fluorescence Cell-Free Homogeneous Dose Retest to Identify Inhibitors of RecA-Intein Splicing Activity. [Related pubchem assays (depositor defined):AID2097, AID2223, AID489010, AID492950]; assay type: functional
T3 sequence (P9WHJ3 whole entry): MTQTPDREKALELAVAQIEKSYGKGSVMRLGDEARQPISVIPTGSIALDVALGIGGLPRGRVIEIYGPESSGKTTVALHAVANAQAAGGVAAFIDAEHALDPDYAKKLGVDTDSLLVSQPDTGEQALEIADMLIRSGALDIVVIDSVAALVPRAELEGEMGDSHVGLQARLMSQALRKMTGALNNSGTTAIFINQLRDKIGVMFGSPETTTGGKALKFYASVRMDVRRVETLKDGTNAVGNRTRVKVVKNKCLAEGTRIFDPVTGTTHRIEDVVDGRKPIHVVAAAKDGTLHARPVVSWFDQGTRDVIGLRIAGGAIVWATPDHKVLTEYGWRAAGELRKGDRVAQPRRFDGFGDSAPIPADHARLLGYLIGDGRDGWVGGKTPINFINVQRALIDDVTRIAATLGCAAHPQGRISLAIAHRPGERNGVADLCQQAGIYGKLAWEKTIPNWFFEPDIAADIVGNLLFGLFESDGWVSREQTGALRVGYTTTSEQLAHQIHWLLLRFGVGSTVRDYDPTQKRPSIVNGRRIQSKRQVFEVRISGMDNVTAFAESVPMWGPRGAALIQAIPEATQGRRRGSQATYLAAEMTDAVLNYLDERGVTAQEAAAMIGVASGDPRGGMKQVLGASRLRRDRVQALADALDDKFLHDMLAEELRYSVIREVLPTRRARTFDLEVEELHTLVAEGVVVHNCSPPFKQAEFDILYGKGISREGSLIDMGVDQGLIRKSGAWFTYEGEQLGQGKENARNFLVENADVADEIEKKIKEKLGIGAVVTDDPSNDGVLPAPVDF

[7] = target: ATP-dependent molecular chaperone HSP82 (Candida albicans (strain WO-1) (Yeast), UniProt C4YTQ8); test: loss of DOC-induced GRE-beta-galactosidase reporter signal, dose response, Hsp90 inhibitor project, S. cerevisiae, luminescence (AID 2400); assay type: functional, cell-based;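 also: beta-galactosidase luminescence from glucocorticoid response element reporter as proxy for Hsp90 function; inhibitor potency where signal loss means Hsp90 inhibition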
Caspase-6 = Caspase-6 (Homo sapiens, UniProt P55212); test: human caspase-6 inhibitors, dose response, biochemical, VEID-R110 fluorescence, cherry-pick (AID 720632)
[8] = target: T4, Sentrin-specific protease 8 (Homo sapiens, UniProt Q96LD8); test: SENP8 protease inhibitors, SAR follow-up, biochemical, luminescence (AID 504501); assay type: functional
T4 sequence (Q96LD8 whole entry): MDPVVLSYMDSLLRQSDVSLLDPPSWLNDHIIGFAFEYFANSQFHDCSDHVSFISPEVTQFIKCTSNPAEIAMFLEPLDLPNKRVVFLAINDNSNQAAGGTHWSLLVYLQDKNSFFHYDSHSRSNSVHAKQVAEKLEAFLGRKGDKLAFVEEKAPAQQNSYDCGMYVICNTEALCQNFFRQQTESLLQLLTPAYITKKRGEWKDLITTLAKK

Caspase-3 = target: T5, Caspase-3 (Homo sapiens, UniProt P42574); test: SAR Analysis of small molecule inhibitors of Sentrin-specific proteases (SENPs) using a Caspase-3 Selectivity assay. [Related pubchem assays (depositor defined):AID2540, AID2599, AID434973, AID489001]; assay type: functional
T5 sequence (P42574 whole entry): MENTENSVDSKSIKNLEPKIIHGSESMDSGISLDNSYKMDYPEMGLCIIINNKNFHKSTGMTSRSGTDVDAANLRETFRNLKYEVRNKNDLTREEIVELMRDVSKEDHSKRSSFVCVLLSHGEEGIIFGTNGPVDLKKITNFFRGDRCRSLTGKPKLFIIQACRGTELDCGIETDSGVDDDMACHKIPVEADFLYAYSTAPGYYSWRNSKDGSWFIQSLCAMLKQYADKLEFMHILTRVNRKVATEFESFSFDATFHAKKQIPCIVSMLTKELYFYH

[9] = target: T6, Sentrin-specific protease 6 (Homo sapiens, UniProt Q9GZR1); test: SAR Analysis of small molecule inhibitors of Sentrin-specific protease 6 (SENP6) using a Luminescent assay. [Related pubchem assays (depositor defined):AID2582, AID2599]; assay type: functional
T6 sequence (Q9GZR1 whole entry): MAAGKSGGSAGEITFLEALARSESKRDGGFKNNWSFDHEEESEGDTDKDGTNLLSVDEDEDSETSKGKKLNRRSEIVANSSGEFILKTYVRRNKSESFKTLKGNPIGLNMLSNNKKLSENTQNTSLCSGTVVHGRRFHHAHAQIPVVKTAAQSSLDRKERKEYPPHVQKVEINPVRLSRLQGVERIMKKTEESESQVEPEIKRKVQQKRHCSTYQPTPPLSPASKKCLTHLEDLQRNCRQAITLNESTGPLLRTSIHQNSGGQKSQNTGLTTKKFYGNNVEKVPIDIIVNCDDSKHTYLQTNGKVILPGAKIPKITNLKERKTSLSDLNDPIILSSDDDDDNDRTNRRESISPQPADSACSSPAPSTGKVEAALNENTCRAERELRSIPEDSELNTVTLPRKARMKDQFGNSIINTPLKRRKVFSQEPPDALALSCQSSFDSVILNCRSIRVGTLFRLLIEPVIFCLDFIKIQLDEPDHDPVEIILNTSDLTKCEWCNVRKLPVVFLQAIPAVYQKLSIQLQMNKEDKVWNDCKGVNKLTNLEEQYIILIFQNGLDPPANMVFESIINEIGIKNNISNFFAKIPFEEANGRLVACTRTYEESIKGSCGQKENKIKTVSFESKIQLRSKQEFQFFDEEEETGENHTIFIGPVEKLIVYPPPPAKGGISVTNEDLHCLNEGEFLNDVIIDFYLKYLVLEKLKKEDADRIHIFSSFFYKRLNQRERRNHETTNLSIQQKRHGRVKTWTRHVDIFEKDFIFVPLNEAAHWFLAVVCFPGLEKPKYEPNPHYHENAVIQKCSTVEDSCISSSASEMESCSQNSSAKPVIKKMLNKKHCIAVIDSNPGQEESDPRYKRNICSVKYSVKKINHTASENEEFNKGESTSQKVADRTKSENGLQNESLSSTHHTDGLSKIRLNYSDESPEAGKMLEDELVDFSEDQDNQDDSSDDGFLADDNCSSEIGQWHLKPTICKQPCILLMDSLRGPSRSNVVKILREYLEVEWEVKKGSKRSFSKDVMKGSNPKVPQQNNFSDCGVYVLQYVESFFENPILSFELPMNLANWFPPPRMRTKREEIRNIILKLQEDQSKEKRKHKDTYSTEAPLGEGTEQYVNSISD

[10] = target: T7, Sentrin-specific protease 7 (Homo sapiens, UniProt Q9BQF6); test: SENP7 protease inhibitors, SAR follow-up, biochemical, luminescence (AID 504497); assay type: functional
T7 sequence (Q9BQF6 whole entry): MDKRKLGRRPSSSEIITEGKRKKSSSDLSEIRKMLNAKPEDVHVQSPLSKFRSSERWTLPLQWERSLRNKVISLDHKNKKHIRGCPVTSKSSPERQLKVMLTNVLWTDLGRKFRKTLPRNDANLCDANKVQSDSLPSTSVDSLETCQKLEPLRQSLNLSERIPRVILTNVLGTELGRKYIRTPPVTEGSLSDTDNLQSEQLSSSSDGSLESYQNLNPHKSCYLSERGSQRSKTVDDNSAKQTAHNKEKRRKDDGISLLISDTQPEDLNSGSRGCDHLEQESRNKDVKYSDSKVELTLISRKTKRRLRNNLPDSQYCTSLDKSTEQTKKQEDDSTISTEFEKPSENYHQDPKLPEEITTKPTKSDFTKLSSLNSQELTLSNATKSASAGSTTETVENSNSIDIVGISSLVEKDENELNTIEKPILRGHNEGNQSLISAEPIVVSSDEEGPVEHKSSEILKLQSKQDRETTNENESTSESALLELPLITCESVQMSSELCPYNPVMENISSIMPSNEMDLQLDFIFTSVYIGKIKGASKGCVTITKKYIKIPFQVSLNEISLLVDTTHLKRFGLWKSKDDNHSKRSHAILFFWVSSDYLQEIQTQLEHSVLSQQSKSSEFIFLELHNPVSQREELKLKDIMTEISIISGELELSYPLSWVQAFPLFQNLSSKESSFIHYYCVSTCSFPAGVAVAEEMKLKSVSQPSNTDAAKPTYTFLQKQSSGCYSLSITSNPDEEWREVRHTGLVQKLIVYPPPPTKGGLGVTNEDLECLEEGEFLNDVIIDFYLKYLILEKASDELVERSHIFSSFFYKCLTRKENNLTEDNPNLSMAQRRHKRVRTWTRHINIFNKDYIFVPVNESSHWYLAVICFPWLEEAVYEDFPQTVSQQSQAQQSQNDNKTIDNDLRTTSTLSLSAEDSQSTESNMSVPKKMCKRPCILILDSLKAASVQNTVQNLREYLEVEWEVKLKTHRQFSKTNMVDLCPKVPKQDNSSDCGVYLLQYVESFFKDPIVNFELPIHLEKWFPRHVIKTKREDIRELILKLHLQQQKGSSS

ATP-dependent molecular chaperone HSP82, sequence (C4YTQ8 whole entry): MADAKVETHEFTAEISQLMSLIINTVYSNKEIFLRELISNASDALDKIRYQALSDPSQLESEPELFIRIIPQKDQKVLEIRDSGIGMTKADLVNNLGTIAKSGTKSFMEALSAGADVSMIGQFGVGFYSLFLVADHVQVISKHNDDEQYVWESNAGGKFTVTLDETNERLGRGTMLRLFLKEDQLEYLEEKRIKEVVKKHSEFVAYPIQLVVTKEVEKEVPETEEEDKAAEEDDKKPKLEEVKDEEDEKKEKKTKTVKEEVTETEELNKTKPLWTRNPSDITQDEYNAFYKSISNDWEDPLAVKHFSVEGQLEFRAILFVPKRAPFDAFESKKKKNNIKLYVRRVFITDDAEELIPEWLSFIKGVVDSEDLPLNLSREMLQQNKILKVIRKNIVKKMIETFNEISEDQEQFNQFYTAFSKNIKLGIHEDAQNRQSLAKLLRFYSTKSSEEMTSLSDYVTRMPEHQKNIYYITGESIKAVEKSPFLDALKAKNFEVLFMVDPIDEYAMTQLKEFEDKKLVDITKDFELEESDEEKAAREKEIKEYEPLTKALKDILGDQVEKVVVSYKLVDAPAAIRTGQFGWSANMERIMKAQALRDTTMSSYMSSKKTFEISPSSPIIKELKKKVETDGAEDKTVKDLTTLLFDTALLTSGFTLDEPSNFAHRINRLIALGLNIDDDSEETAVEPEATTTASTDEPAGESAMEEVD
Serine/threonine-protein phosphatase, sequence (B9W6M3 whole entry): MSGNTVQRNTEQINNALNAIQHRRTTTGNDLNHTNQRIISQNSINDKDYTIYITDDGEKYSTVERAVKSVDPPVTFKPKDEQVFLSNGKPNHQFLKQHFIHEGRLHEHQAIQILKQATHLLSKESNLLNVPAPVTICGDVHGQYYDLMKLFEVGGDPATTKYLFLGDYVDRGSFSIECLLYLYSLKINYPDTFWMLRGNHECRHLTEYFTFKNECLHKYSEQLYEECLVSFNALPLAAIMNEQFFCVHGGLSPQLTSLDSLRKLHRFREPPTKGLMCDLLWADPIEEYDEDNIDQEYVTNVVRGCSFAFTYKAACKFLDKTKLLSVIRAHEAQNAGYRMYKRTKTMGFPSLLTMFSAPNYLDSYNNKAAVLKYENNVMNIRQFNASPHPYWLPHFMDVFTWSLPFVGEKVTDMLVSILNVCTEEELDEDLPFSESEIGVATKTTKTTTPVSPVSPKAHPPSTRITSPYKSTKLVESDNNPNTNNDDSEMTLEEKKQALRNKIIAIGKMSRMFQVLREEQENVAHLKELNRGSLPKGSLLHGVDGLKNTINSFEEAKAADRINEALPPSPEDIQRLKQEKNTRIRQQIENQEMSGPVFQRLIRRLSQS
Beta-galactosidase, sequence (Q8VNN2 whole entry): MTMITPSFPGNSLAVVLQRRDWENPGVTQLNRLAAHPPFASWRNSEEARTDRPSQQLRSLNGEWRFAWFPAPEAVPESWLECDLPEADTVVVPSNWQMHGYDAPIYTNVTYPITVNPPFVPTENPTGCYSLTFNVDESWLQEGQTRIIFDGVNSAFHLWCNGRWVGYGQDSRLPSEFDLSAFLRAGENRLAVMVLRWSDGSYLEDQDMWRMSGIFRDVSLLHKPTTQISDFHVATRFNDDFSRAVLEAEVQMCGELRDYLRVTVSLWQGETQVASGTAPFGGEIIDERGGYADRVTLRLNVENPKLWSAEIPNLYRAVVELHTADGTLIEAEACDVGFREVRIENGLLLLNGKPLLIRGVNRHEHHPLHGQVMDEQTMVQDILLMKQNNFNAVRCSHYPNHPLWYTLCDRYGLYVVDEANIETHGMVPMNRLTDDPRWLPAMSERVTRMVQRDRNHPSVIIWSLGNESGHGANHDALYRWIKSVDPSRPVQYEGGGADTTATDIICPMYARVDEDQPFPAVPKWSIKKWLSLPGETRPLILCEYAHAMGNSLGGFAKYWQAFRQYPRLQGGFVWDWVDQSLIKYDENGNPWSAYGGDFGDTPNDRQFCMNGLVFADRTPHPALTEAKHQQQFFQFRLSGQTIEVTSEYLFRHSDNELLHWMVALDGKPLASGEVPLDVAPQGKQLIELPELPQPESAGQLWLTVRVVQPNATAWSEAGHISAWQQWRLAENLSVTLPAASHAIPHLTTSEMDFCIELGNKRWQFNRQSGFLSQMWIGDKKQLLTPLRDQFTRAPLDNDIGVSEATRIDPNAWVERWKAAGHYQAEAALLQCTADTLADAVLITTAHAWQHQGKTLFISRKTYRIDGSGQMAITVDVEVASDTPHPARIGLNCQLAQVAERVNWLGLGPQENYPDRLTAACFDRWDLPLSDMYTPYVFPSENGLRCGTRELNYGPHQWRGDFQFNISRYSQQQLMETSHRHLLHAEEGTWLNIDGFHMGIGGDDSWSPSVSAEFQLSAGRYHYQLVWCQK
Caspase-6, sequence (P55212 24-179 limits assumed): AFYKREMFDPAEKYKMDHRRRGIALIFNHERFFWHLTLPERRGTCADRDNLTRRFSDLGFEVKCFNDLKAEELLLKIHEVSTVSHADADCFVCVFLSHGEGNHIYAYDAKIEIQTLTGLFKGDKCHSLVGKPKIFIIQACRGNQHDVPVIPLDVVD
Caspase-6, sequence (P55212 194-293 limits assumed): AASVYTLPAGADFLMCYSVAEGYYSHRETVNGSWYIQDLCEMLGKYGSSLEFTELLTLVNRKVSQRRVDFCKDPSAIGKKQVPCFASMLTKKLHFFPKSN

Structure (SMILES) | EC50 [1] | EC50 [2] | EC50 [3] | IC50 (Exodeoxyribonuclease V) | IC50 [4] | IC50 (Beta-galactosidase) | IC50 [5] | AC50 [6] | EC50 (Protein RecA) | EC50 [7] | AC50 (Caspase-6) | IC50 [8] | IC50 (Caspase-3) | IC50 [9] | IC50 [10]
O=[N+]([O-])c1cc(O)c2ncccc2c1 | 42.1 µM (active) | 0.706 µM (active) | > 180 µM (inactive) | 62.3 µM (inactive) | > 66.6 µM (inactive) | > 66.6 µM (inactive) | 41.5 µM (inactive) | 6.95 µM (active) | 4.6 µM (active) | 18.5 µM (active) | 17.3 µM (active) |  |  |  | 
COc1cc(OC)cc(-c2noc(/C=C/c3ccccc3Cl)n2)c1 |  |  |  |  |  |  |  |  |  |  |  | > 99 µM (inactive) | > 99 µM (inactive) | > 99 µM (inactive) | > 99 µM (inactive)
CCN=C(S)NNC(=O)c1cc(-c2cc(C)ccc2C)nc2ccccc12 | 129 µM (active) | 0.296 µM (active) | > 180 µM (inactive) |  |  |  |  |  |  | > 150 µM (inactive) |  |  |  |  | 
O=C(Nc1nc2ccc(Cl)cc2s1)C1CCCCC1 |  |  |  |  |  |  |  |  |  |  |  | > 99 µM (inactive) | > 99 µM (inactive) | > 99 µM (inactive) | > 99 µM (inactive)
